According to ChEMBL document CHEMBL5465560, “Selectivity Literature for EUbOPEN Chemogenomic Library” (2024):
Values belong to the compound of their own block, whether it stands above or below them.

What was measured:
[1] = molecular target: Death-associated protein kinase 1 (Homo sapiens, UniProt P53355); settings: at 10 µM
[2] = molecular target: T1, Ankyrin repeat and protein kinase domain-containing protein 1 (Homo sapiens) (UniProt Q8NFD2); settings: at 10 µM
T1 sequence (whole entry): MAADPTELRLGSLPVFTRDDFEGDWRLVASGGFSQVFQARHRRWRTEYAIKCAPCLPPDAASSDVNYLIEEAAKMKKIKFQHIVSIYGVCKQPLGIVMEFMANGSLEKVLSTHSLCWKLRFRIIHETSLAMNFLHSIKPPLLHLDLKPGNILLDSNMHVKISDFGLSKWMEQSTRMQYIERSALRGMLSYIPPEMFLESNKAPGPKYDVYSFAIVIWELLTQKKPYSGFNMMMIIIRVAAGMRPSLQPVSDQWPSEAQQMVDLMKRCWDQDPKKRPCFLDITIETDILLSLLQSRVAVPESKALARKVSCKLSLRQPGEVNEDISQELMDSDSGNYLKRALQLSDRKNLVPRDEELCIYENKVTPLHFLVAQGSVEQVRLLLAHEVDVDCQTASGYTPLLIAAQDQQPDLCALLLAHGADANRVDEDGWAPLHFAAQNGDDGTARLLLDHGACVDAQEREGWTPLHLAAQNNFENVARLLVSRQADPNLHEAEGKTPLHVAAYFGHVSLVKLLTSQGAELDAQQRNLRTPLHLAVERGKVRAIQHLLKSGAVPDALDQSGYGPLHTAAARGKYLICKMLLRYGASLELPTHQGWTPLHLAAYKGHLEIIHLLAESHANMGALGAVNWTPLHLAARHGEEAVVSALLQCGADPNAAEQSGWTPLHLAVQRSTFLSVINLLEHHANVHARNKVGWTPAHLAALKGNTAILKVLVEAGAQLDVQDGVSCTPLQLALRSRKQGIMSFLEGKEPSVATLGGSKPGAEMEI

[3] = molecular target: Polycomb protein SUZ12 (Homo sapiens) (UniProt Q15022); settings: at 1 µM
Polycomb protein SUZ12 (Homo sapiens), sequence (Q15022 whole entry): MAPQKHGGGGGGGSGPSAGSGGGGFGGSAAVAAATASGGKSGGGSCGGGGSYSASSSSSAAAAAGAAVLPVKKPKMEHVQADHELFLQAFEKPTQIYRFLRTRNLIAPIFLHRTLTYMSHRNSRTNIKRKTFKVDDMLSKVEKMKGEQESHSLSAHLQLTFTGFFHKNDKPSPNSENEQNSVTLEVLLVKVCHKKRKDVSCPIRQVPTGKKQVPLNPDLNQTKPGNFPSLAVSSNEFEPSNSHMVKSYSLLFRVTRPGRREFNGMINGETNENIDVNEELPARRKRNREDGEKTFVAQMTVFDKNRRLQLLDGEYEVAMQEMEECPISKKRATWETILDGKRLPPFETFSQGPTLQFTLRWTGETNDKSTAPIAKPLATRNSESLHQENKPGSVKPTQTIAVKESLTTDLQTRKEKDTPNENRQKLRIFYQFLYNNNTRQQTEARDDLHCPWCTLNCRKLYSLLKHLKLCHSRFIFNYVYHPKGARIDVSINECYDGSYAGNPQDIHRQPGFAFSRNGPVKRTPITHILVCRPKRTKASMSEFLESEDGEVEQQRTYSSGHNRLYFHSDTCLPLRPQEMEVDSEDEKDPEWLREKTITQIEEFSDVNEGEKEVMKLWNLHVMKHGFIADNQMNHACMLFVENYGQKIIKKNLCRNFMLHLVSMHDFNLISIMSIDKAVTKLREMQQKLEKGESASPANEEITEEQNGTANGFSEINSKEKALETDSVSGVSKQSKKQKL

[4] = molecular target: Muscarinic acetylcholine receptor M1 (Homo sapiens, UniProt P11229); assay: Selectivity interaction (Muscarinic M1 receptor assay, human recombinant ) EUB0000877a CHRM1
Muscarinic acetylcholine receptor M1, sequence (P11229 whole entry): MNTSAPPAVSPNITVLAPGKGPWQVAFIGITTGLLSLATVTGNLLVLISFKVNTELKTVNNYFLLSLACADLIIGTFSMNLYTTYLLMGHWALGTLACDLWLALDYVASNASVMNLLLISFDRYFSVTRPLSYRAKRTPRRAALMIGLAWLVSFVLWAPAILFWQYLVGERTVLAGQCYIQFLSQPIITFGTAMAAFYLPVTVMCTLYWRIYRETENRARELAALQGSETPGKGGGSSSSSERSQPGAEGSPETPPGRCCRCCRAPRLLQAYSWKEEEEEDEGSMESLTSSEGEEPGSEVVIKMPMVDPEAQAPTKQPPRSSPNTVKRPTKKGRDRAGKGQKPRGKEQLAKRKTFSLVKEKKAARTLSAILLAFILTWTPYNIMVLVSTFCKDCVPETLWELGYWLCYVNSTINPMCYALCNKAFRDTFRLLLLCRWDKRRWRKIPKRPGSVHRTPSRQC

[5] = molecular target: Ribosomal protein S6 kinase alpha-3 (Homo sapiens, UniProt P51812); assay: Selectivity interaction (KinomeScan (DiscoverX)) EUB0000695a RPS6KA3; settings: at 100 nM
Ribosomal protein S6 kinase alpha-3, sequence (P51812 whole entry): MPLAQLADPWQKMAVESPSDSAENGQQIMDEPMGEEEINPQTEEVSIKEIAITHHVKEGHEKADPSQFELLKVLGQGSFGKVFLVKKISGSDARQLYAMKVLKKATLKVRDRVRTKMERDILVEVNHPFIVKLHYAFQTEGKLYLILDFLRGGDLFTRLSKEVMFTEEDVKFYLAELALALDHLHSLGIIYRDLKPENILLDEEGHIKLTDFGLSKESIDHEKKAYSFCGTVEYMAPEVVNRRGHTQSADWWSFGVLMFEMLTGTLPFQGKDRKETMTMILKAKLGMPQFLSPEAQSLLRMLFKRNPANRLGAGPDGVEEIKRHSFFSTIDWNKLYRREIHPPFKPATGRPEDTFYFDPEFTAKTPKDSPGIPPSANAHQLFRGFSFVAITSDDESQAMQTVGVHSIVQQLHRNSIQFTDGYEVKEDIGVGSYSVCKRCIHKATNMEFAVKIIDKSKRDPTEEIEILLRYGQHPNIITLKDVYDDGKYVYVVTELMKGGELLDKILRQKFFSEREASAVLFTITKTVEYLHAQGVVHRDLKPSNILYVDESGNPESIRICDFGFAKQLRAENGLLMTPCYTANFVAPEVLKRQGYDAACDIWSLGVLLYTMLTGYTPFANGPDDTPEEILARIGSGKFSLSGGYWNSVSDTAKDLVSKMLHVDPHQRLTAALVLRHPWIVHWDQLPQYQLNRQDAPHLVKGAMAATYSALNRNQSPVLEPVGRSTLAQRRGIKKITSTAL

[6] = molecular target: T2, Serine/threonine-protein kinase D3 (Homo sapiens) (UniProt O94806); assay: Selectivity interaction (KinomeScan (DiscoverX)) EUB0000595a PRKD3; settings: at 10 µM
T2 sequence (whole entry): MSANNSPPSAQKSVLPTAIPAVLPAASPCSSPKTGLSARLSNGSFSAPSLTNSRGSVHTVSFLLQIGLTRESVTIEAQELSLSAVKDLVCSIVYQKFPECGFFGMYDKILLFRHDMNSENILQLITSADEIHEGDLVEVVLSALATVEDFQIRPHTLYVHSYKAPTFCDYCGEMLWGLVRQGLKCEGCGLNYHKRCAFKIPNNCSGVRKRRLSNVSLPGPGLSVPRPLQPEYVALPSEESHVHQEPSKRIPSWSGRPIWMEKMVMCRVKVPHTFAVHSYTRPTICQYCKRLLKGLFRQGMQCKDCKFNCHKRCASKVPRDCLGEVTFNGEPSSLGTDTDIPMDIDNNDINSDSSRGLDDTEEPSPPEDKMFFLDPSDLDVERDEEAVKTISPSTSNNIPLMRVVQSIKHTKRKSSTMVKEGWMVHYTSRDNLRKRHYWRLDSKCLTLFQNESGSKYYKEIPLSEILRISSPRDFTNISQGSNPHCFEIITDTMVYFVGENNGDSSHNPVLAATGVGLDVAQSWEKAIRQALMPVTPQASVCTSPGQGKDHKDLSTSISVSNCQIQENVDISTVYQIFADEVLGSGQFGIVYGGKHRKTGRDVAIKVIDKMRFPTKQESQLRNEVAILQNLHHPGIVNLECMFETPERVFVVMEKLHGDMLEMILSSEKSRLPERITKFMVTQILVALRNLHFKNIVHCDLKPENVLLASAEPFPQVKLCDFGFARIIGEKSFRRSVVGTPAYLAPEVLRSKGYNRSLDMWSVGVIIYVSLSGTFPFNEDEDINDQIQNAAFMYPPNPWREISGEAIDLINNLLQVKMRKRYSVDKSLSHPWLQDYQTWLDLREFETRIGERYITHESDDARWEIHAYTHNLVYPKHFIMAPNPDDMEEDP

[7] = molecular target: Protein-tyrosine kinase 2-beta (Homo sapiens) (UniProt Q14289); assay: Selectivity interaction (Upstate Kinase Profiler service (Millipore)) EUB0000056c PTK2B; settings: at 1 µM
Protein-tyrosine kinase 2-beta (Homo sapiens), sequence (Q14289 whole entry, looked up): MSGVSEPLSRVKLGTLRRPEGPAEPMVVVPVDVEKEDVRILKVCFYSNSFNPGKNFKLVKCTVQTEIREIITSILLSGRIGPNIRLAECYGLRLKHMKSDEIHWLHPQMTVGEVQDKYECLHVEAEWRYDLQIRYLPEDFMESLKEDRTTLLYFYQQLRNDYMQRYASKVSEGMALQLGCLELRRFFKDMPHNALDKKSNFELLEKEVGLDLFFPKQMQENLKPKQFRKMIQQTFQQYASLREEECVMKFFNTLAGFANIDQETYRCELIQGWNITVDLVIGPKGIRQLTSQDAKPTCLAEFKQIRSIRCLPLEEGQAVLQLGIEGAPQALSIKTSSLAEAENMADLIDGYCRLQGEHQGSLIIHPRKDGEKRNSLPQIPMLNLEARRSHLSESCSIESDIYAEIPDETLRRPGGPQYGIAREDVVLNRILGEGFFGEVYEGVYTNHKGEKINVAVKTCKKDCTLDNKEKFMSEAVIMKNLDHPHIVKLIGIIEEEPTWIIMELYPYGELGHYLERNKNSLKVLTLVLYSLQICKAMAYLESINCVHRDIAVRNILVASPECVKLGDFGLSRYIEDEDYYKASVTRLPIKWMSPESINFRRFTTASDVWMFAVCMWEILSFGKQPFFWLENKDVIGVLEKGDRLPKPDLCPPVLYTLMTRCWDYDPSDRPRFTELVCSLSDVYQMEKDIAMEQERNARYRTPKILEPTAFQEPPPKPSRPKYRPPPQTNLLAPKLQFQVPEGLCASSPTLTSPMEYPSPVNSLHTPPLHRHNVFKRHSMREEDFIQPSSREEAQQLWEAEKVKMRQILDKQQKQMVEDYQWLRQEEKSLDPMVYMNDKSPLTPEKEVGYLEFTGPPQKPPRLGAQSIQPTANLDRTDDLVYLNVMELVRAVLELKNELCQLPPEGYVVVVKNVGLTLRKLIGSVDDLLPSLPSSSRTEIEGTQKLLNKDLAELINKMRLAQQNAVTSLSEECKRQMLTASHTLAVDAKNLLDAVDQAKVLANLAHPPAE

[8] = molecular target: Serine/threonine-protein kinase Chk2 (Homo sapiens) (UniProt O96017); assay: Selectivity interaction (KinomeScan (DiscoverX)) EUB0000655a CHEK2; settings: at 10 µM
Serine/threonine-protein kinase Chk2 (Homo sapiens), sequence (O96017 whole entry): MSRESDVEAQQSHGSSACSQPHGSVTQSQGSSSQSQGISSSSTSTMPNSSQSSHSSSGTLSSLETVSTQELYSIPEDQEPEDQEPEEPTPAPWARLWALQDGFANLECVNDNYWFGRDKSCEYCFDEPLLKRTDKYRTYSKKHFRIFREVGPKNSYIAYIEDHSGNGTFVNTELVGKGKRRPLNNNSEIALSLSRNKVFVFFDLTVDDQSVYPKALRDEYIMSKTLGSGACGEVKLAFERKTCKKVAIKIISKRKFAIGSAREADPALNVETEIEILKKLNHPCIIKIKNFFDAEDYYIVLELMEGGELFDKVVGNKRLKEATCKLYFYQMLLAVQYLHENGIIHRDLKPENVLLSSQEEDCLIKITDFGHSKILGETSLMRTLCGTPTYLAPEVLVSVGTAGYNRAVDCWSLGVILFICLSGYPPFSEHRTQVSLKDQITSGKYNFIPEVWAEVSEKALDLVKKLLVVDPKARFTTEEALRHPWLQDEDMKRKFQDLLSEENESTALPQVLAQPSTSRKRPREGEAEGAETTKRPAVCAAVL

[9] = molecular target: Tyrosine-protein kinase SYK (Homo sapiens, UniProt P43405); assay: Selectivity interaction (KinomeScan (DiscoverX)) EUB0001619a SYK; settings: at 1 µM
[10] = molecular target: T3, Dual specificity tyrosine-phosphorylation-regulated kinase 3 (Homo sapiens) (UniProt O43781); assay: Selectivity interaction (SelectScreen profiling (Invitrogen)) EUB0000607a DYRK3; settings: at 2 µM
T3 sequence (whole entry): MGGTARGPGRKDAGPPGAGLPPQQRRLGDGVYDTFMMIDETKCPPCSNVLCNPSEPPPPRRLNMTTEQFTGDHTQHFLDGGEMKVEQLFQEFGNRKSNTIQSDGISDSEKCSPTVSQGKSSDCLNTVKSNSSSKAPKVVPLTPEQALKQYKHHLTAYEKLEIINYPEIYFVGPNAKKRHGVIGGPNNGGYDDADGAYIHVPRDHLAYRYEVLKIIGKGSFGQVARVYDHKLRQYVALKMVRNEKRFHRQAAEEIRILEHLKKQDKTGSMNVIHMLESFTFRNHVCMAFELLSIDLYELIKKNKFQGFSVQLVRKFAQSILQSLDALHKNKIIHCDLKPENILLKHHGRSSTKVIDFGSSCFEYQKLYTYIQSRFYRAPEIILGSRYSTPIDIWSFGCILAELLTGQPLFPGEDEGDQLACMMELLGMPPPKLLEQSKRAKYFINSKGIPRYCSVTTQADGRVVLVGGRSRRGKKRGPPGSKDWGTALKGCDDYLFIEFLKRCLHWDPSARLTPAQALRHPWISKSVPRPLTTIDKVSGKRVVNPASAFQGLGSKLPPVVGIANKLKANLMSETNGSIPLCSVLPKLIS

Death-associated protein kinase 1, sequence (P53355 whole entry, looked up, the tested form may be a part): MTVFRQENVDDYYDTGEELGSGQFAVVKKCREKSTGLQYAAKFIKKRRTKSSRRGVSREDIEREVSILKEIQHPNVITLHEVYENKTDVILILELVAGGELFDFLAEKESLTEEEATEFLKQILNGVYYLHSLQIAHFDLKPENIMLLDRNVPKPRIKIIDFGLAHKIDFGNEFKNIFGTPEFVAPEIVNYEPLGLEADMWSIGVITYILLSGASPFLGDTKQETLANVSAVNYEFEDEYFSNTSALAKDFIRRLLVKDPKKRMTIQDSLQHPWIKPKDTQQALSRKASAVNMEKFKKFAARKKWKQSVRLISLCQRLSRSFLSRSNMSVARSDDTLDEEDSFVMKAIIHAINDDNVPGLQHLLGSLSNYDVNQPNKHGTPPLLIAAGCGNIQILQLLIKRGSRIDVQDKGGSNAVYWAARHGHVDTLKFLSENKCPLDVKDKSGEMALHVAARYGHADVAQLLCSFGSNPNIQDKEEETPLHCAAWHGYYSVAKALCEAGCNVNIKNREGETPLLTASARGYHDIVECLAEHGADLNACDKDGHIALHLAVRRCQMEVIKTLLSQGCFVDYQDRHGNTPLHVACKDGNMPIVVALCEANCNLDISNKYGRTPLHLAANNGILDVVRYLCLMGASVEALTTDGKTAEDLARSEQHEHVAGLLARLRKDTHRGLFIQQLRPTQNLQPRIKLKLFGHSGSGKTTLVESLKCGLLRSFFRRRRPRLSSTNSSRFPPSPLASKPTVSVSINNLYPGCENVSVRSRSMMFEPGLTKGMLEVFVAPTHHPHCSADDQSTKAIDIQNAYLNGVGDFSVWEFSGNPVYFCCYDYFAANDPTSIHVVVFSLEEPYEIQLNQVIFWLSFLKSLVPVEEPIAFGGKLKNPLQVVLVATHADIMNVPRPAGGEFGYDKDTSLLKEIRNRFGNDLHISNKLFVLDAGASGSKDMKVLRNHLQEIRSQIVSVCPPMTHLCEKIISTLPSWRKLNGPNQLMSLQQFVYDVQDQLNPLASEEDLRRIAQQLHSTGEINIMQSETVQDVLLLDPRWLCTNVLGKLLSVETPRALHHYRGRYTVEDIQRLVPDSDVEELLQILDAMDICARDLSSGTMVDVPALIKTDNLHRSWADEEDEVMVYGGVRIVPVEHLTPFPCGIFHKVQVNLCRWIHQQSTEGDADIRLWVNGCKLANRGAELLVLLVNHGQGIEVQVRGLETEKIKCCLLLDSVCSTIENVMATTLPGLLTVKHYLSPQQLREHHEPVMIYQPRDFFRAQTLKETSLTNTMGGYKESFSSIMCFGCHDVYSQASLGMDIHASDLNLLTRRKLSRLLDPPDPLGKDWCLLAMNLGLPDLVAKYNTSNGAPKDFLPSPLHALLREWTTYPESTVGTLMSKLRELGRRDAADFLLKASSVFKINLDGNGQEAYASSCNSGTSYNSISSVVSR

Structure (SMILES): Cc1cc([C@@H](C)Nc2ccccc2C(=O)O)c2nc(N3CCOCC3)cc(=O)n2c1 [AZD-6482]
- % of control [1]: 95%
- % of control [2]: 100%

- % activity [3]: > 90%
Structure (SMILES): CNCCN1CCC(c2cc(CN(C)C(=O)c3cccc(Oc4ccccc4)c3)ccn2)CC1

- IC50 [4]: > 30 µM
Structure (SMILES): CCC(=O)N1CC[C@H](Nc2ncnc3c2CN(c2cnc(OC)c(C(F)(F)F)c2)CC3)C1 [LENIOLISIB]

Structure (SMILES): Cc1cc(F)c(C(=O)Nc2cccc(-c3nncn3C(C)C)n2)cc1-n1cnc(C2CC2)c1
- % of control [5]: 98%

Structure (SMILES): COCC(=O)NC/C=C/c1ccc2ncnc(Nc3ccc(Oc4ccc(C)nc4)c(C)c3)c2c1 [CP-724714]
- % of control [6]: 83%

- % of inhibition [7]: 12%
Structure (SMILES): Cc1ccc(-c2ccc3c(ccc4sc5c(c43)NC[C@@H](C)NC5=O)n2)cn1

Structure (SMILES): CN(C)CCOc1ccc(-c2nc(-c3ccncc3)c(-c3ccc4c(c3)CC/C4=N\O)[nH]2)cc1
- % of control [8]: 100%

Structure (SMILES): N#Cc1cccc(-c2c[nH]c3ncnc(N4CCOCC4)c23)c1
- % of control [9]: 100%

Structure (SMILES): CNC(=O)Nc1ccc(-c2nc(N3CC4CCC(C3)O4)c3cnn(C4CCC5(CC4)OCCO5)c3n2)cc1
- % of inhibition [10]: -1%
